According to patent US12404232B2, “Compounds and compositions for intracellular delivery of therapeutic agents” (ModernaTX, Inc., priority 2015, dated 2025):

Legend:
mice [1] = assay: Luc expression (bioluminescence, total flux) after intravenous administration to mice; format: in vivo; settings: for AUC (p/s*h): Luc total flux (Table 3D); for 6 h Lipid/MC3 G.M. Luc Expression / AUC (h*p/s): i.v. administration; for 6 h Lipid/MC3 G.M. Luc Expression: geometric mean; for AUC (h*p/s): total Luc flux (Table 3C)
Experimental: (§1) In order to monitor how effectively various nanoparticle compositions deliver therapeutic and/or prophylactics to targeted cells, different nanoparticle compositions including a particular therapeutic and/or prophylactic (for example, a modified or naturally occurring RNA such as an mRNA) are prepared and administered to rodent populations. Mice are intravenously, intramuscularly, intraarterially, or intratumorally administered a single dose including a nanoparticle composition with a formulation such as those provided in Example 3. In some instances, mice may be made to inhale doses. Dose sizes may range from 0.001 mg/kg to 10 mg/kg, where 10 mg/kg describes a dose including 10 mg of a therapeutic and/or prophylactic in a nanoparticle composition for each 1 kg of body mass of the mouse. A control composition including PBS may also be employed.
Upon administration of nanoparticle compositions to mice, dose delivery profiles, dose responses, and toxicity of particular formulations and doses thereof can be measured by enzyme-linked immunosorbent assays (ELISA), bioluminescent imaging, or other methods. For nanoparticle compositions including mRNA, time courses of protein expression can also be evaluated. Samples collected from the rodents for evaluation may include blood, sera, and tissue (for example, muscle tissue from the site of an intramuscular injection and internal tissue); sample collection may involve sacrifice of the animals.
The efficacy of the nanoparticle compositions presented in Table 1A was evaluated with a bioluminescence study. Formulations were administered intravenously to mice (n=6) at a dosage of 0.5 mg/kg (mpk) and bioluminescence measured at 3, 6, and 24 hour time points. The standard MC3 formulation and, in some instances, a control (e.g., a PBS control) were evaluated for comparison. […] In general, flux decreased as time progressed to less than 10% of the initial flux.
(§2) The total flux (measured by area under the curve, AUC) induced by administration of a formulation including a given lipid relative to that induced by administration of a formulation including MC3 was also measured for several lipids.
The tolerability and efficacy of nanoparticle compositions to non-human primates was also investigated using sample formulations including Compounds 18, 25, 26, and 48 and MC3 to determine if these compounds are differentiated in terms of protein expression. The formulations were prepared according to the standard MC3 formulation described above and included an hEPO mRNA. Table 30 includes details of the compositions tested, while Table 31 summarizes the relative expression of Luc and hEPO mRNA in mice and rats. Expression was measured 6 hours after administration.

[2] = Particle size and polydispersity index of nanoparticle compositions (Zetasizer Nano ZS); format: physicochemical; settings: for PDI: nanoparticle composition 50:10:38.5:1.5 mol % (Table 1A); for Size (nm): nanoparticle composition lipid:DSPC:cholesterol:PEG-DMG 50:10:38.5:1.5 mol %, mRNA encoding Luc or hEPO (Table 1A)
From the text: Nanoparticle compositions may be characterized by a variety of methods. For example, microscopy (e.g., transmission electron microscopy or scanning electron microscopy) may be used to examine the morphology and size distribution of a nanoparticle composition. Dynamic light scattering or potentiometry (e.g., potentiometric titrations) may be used to measure zeta potentials. Dynamic light scattering may also be utilized to determine particle sizes. Instruments such as the Zetasizer Nano ZS (Malvern Instruments Ltd, Malvern, Worcestershire, UK) may also be used to measure multiple characteristics of a nanoparticle composition, such as particle size, polydispersity index, and zeta potential.
A Zetasizer Nano ZS (Malvern Instruments Ltd, Malvern, Worcestershire, UK) can be used to determine the particle size, the polydispersity index (PDI) and the zeta potential of the nanoparticle compositions in 1×PBS in determining particle size and 15 mM PBS in determining zeta potential.
Initial studies were performed to compare the delivery efficiency of nanoparticle compositions including various compounds according to Formula (I), (IA), (II), (IIa), (IIb), (IIc), (IId) or (IIe). The cationic lipid MC3 is a current standard in the art. Accordingly, the standard MC3 formulation including about 50 mol % MC3, about 10 mol % DSPC, about 38.5 mol % cholesterol, and about 1.5 mol % PEG-DMG was used as a basis for this study. Nanoparticle compositions including DSPC as a phospholipid, cholesterol as a structural lipid, PEG-DMG as a PEG lipid, an RNA, and a compound according to Formula (I), (IA), (II), (IIa), (IIb), (IIc), (IId) or (IIe) selected from Compounds 1-159, 168-170, and 173-175 were prepared according to or via methods similar to those described in Examples 1 and 2. The ratios of the lipids were 50:10:38.5:1.5 mol % for the lipid according to Formula (I), (IA), (II), (IIa), (IIb), (IIc), (IId) or (IIe):DSPC:cholesterol:PEG-DMG. The RNA used was an mRNA encoding G5 luciferase (Luc) or G5 hEPO. Tables 1A-1B summarize the content and characteristics of the formulations. […]

mice [3] = assay: Cytokine induction (IL-6, IP-10) in mice after intravenous administration; format: in vivo; design: IL-6 / IP-10: unit not given here; settings: 0.5 mpk, 6 hours
From the text: The introduction of foreign material into a mammalian body induces an innate immune response that promotes cytokine production. Such immune responses to, for example, nanoparticle compositions including therapeutic and/or prophylactics, are undesirable. The induction of certain cytokines is thus measured to evaluate the […] of nanoparticle compositions. The concentrations of various cytokines in mice upon intravenous administration of nanoparticle compositions presented in Table 1A at a dosage of 0.5 mpk was measured at 6 hours. The standard MC3 formulation and a PBS control were also tested. As is evident in Table 7, IL-6 induction was highest for compositions including Compounds 1, 3, 9, 19, and 26, while IP-10 induction was highest for compositions including Compounds 3, 4, 7, 20, and 26. IL-6 induction was lowest for compositions including Compounds 4, 11, 12, and 28. IP-10 induction was lowest for compositions including Compounds 10, 11, 12, 13, 15, 17, and 18.
The expression of hEPO and cytokine induction in mice intravenously administered a nanoparticle composition at a dose of 0.5 mpk were measured at 3, 6, and 24 hours. […] The expression of hEPO in mice intramuscularly administered a nanoparticle composition from Table 1B at a dose of 0.01 mpk were measured at 3, 6, and 24 hours. […] (see also FIG. 9.)

mice [4] = assay: Luc expression (total flux) after intramuscular administration; format: in vivo; settings: 6 hours after intramuscular administration, Luc mRNA and H10 mRNA
Experimental: The numbers 1-7 in this figure correspond to MC3, Compounds 168-170, and 173-175 respectively.
as §1, §2
Sample formulations including both modified luciferase (Luc) mRNA and H10 mRNA were prepared and administered intramuscularly and the resulting expression and immunogenicity were evaluated simultaneously. Formulations including compounds according to Formula (I), (IA), (II), (IIa), (IIb), (IIc), (IId) or (IIe) were prepared and administered at doses of 0.001 and 0.01 mpk (e.g., doses of 0.0005 mpk of a formulation including Luc mRNA and a formulation including H10 mRNA or doses of 0.005 mpk of a formulation including Luc mRNA and a formulation including H10 mRNA).
Sample formulations including modified luciferase (Luc) mRNA prepared and administered intramuscularly and the resulting expression and immunogenicity were evaluated simultaneously. Formulations including compounds according to Formula (I), (IA), (II), (IIa), (IIb), (IIc), (IId) or (IIe) were prepared and administered at dose of […] 0.01 mpk.
The fluxes measured upon intravenous and intramuscular administration are compared in Table 6. Fluxes are presented as fold increase over that measured for MC3 formulations.

| Compound | PDI [2] | Size (nm) [2] [nm] | IL-6 (mice [3]) | further results |
| --- | --- | --- | --- | --- |
| CCCCCCCCCOC(=O)CCCCCCCN(CCO)CCCCCCCC(=O)OC(C)(C)C [Compound 158, tert-Butyl 8-((2-hydroxyethyl)(8-(nonyloxy)-8-oxooctyl)amino)octanoate] | – | – | – | AUC (p/s*h) (mice [1]): 1.211E+007 p/s*h |
| CCCCCCCCC(C)OC(=O)CCCCCCCN(CCO)CCCCCCCOC(=O)C(CCCCCCCC)CCCCCCCC (centres unmarked) [Compound 135, 7-((8-(Decan-2-yloxy)-8-oxooctyl)(2-hydroxyethyl)amino)heptyl 2-octyldecanoate] | – | – | – | 6 h Lipid/MC3 G.M. Luc Expression (mice [1]): 10.5; AUC (h*p/s) (mice [1]): 1.25E+12 h*p/s |
| CCCCCCCCC(CCCCCCCC)OC(=O)CCCCCCCN(CCO)CCCCCC(=O)N(C)CCCCCCCC [Compound 146, Heptadecan-9-yl 8-((2-hydroxyethyl)(6-(methyl(octyl)amino)-6-oxohexyl)amino)octanoate] | – | – | – | 6 h Lipid/MC3 G.M. Luc Expression (mice [1]): 0.012; AUC (h*p/s) (mice [1]): 1.04E+09 h*p/s |
| CCCCCCCCCOC(=O)CCCCCCCN(CCCCCCCC(=O)OC(CCCCCCCC)CCCCCCCC)CCCNC(=S)NC [Compound 113, Heptadecan-9-yl 8-((3-(3-methylthioureido)propyl)(8-(nonyloxy)-8-oxooctyl)amino)octanoate] | 0.15 | 69.2 | – | – |
| CCCCCCCCC(CCCCCCCC)OC(=O)CCCCCCCN(C)CCCCCCCCCC(=O)OCCCCCCC [Compound 149, Heptyl 10-((8-(heptadecan-9-yloxy)-8-oxooctyl)(methyl)amino)decanoate] | – | – | – | AUC (p/s*h) (mice [1]): 1.057E+011 p/s*h |
| CCCCCCCCCOC(=O)CCCCCCCN(CCCCCCCC(=O)OC(CCCCCCCC)CCCCCCCC)CCCNC(=O)NC [Compound 112, Heptadecan-9-yl 8-((3-(3-methylureido)propyl)(8-(nonyloxy)-8-oxooctyl)amino)octanoate] | 0.12 | 85.7 | – | – |
| CCCCCCCCCOC(=O)CCCCCCCN(CCCCCCCC(=O)OC(CCCCCCCC)CCCCCCCC)CCCNC(=O)N(C)C [Compound 110, Heptadecan-9-yl 8-((3-(3,3-dimethylureido)propyl)(8-(nonyloxy)-8-oxooctyl)amino)octanoate] | 0.13 | 118 | – | – |
| CCCCCCCCCOC(=O)CCCCCCCN(CCO)CCCCCCCC(=O)N(CCCCCCCC)CCCCCCCC [Compound 144, Nonyl 8-((8-(dioctylamino)-8-oxooctyl)(2-hydroxyethyl)amino)octanoate] | – | – | 319.46 | IP-10 (mice [3]): 4220.55; Total flux (p/s) 0.001 mpk Dose (mice [4]): 2.72E+06 p/s; Total flux (p/s) 0.01 mpk Dose (mice [4]): 2.18E+07 p/s |
| CCCCCCCCCOC(=O)CCCCCCCN(CCO)CCCCCCCC(=O)OCCCCCCCCC [Compound 138, Dinonyl 8,8′-((2-hydroxyethyl)azanediyl)dioctanoate] | – | – | 23.38 | IP-10 (mice [3]): 172.56; Total flux (p/s) 0.001 mpk Dose (mice [4]): 2.72E+05 p/s; Total flux (p/s) 0.01 mpk Dose (mice [4]): 1.19E+06 p/s |
| CCCCCCCCC(CCCCCCCC)OC(=O)CCCCCCCN(CCO)CCCCCCCC(=O)OC(CCCCCCCC)CCCCCCCC [Compound 29, Di(heptadecan-9-yl) 8,8′-((2-hydroxyethyl)azanediyl)dioctanoate] | – | – | 69.54 | IP-10 (mice [3]): 1362.81; Total flux (p/s) 0.001 mpk Dose (mice [4]): 7.64E+05 p/s; Total flux (p/s) 0.01 mpk Dose (mice [4]): 1.12E+07 p/s |

Now from value to compound, other results behind:

| PDI [2] | Size (nm) [2] [nm] | IL-6 (mice [3]) | Compound | further results |
| --- | --- | --- | --- | --- |
| – | 111.5 | 126.83 | CCCCCCCCCOC(=O)CCCCCCCN(CCCCO)CCCCCCCC(=O)OC(CCCCCCCC)CCCCCCCC [Compound 20, Heptadecan-9-yl 8-((4-hydroxybutyl)(8-(nonyloxy)-8-oxooctyl)amino) octanoate] | – |
| 0.10 | 64.2 | – | CCCCCCCCC(CC)OC(=O)CCCCCN(CCO)CCCCCCCC(=O)OC(CCCCCCCC)CCCCCCCC (centres unmarked) [Compound 75, Heptadecan-9-yl 8-((2-hydroxyethyl)(6-oxo-6-(undecan-3-yloxy)hexyl)amino)octanoate] | – |
| – | – | 94.07 | CCCCCCCCC(CCCCCCCC)OC(=O)CCCCCCCN(CCO)CCCCCC [Compound 5, Heptadecan-9-yl 8-(hexyl(2-hydroxyethyl)amino)octanoate] | IP-10 (mice [3]): 487.16; Total flux (p/s) 0.001 mpk Dose (mice [4]): 9.84E+05 p/s; Total flux (p/s) 0.01 mpk Dose (mice [4]): 3.55E+06 p/s |
| 0.14 | 69.4 | – | CCCCCCCCC(CCCCCCCC)OC(=O)CCCCCCCN(CCO)CCCCCC(=O)OC(CCCCCCCC)C1CC1 (centres unmarked) [Compound 128, Heptadecan-9-yl 8-((6-((1-cyclopropylnonyl)oxy)-6-oxohexyl)(2-hydroxyethyl)amino)octanoate] | – |
| 0.11 | 65.4 | – | CCCCCCCCC(CC)OC(=O)CCCN(CCO)CCCCCCCC(=O)OC(CCCCCCCC)CCCCCCCC (centres unmarked) [Compound 72, Heptadecan-9-yl 8-((2-hydroxyethyl)(4-oxo-4-(undecan-3-yloxy)butyl)amino)octanoate] | – |
| 0.11 | 89.1 | – | CCCC/C=C\CCC(CC/C=C\CCCC)OC(=O)CCCCCCCN(CCO)CCCCCC(=O)OCCCCCCCCCCC [Compound 61, (5Z,12Z)-heptadeca-5,12-dien-9-yl 8-((2-hydroxyethyl)(6-oxo-6-(undecyloxy)hexyl)amino)octanoate] | – |
